From patent US8257714B2, “Compositions and methods for immunotherapy of cancer and infectious diseases” (priority 2003, dated 2012)

B1: IFNγ: Interferon-gamma (protein, UniProt P01580 23-155, looked up)
Interferon gamma: HGTVIESLESLNNYFNSSGIDVEEKSLFLDIWRNWQKDGDMKILQSQIISFYLRLFEVLKDNQAISNNISVIESHLITTFFSNSKAKKDAFMSIAKFEVNNPQVQRQAFNELIRVVHQLLPESSLRKRKRSRC
B2: IL-18: interleukin (protein, UniProt P70380 36-192, looked up)
Interleukin-18: NFGRLHCTTAVIRNINDQVLFVDKRQPVFEDMTDIDQSASEPQTRLIIYMYKDSEVRGLAVTLSVKDSKMSTLSCKNKIISFEEMDPPENIDDIQSDLIFFQKRVPGHNKMEFESSLYEGHFLACQKEDDAFKLILKKKDENGDKSVMFTLTNLHQS
B3: IL-2: Interleukin 2 (protein, UniProt P04351 21-169, looked up)
Interleukin-2: APTSSSTSSSTAEAQQQQQQQQQQQQHLEQLLMDLQELLSRMENYRNLKLPRMLTFKFYLPKQATELKDLQCLEDELGPLRHVLDLTQSKSFQLEDAENFISNIRVTVVKLKGSDNTFECQFDDESATVVDFLRRWIAFCQSIISTSPQ
B4: IL-10: interleukin (protein, UniProt P18893 19-178, looked up)
Interleukin-10: SRGQYSREDNNCTHFPVGQSHMLLELRTAFSQVKTFFQTKDQLDNILLTDSLMQDFKGYLGCQALSEMIQFYLVEVMPQAEKHGPEIKEHLNSLGEKLKTLRMRLRRCHRFLPCENKSKAVEQVKSDFNKLQDQGVYKAMNEFDIFINCIEAYMMIKMKS

Tests used:
[1] = tested on: DC-activity induced by ARP preparations; test: Effect of divalent cations on DC-activity of ARP; format: cell-based, mouse; settings: mM-μM concentration range
From the text: Some differences exist in the interaction of copper and zinc with ARP and must be explored further. […] The former was inhibited by both-calcium and magnesium ions, while the latter—only by magnesium ions.

Candida albicans = Candida albicans infection in mice; format: in vivo, CDI mice
Procedure: Groups of female CDI mice were inoculated intravenously (i.v.) on Day 0 with an infectious dose of Candida albicans calculated to provide 60-100% mortality in the control group. Groups of mice were administered, by i.p. injection, one of three concentrations of the test material (0.1, 1.0 or 10.0 ng/mouse/day) or vehicle on Day 0, approximately 1.5 hours following infectious challenge, and again on Days 1 through 4, for a total of five doses. An additional assay control group of mice was administered approximately 80 mg of fluconazole per kg of body weight by oral gavage approximately 1, 24, 48 and 72 hours following infectious challenge.

[2] = tested on: freshly isolated dendritic cells (CD11c+ splenocytes); test: Dendritic cell (DC) assay: IL12 release from freshly isolated dendritic cells; format: cell-based, BALB/c mice; settings: for DC mIL12 Release: tested for synergism and inhibition
From the text: In a preferred embodiment, dendritic cell (DC) assay is used to follow interleukin-12 (IL-12) release from freshly isolated dendritic cells as an index of DC activation (see section 12.3). […] Briefly, by way of example but not limitation, a DC assay can be carried out as follows: freshly isolated dendritic cells (CD11c^+ splenocytes, e.g., isolated from the spleens of BALB/c mice within ten hours of assaying the activity) are suspended at a density of 0.5×10^6 cells per mL in cytokine supplemented culture media (GM-CSF, 1.0 ng/ml; IL-4, 1.0 ng/ml; IFNg, 3.0 ng/ml; anti mouse CD40, 0.5 mg/ml). […] Mouse IL-12 release from the dendritic cells (CD11c^+ splenocytes) is then measured using ELISA.
To follow the activity in semi-purified preparations of BEX, an assay which follows IL12 release from freshly isolated dendritic cells (DCs) as an index of DC activation was developed. This activity is highly correlated with both NK-CMC in vitro and anti-tumor activity in vivo.
DCs were isolated from the spleens of male BALB/c mice 8-12 weeks of age (Harlan Bioproducts for Science, Indianapolis, Ind.), using the magnetic assisted cell separation (MACS) system purchased from Miltenyi Biotech. In summary: Spleens were aseptically removed from mice and placed into a petri dish containing 5 mL holding media (DMEM/F12 supplemented with 10% FCS and antibiotics). Each spleen was then injected with ˜0.5 mls collagenase D solution (1 mg/mL in 10 mM Hepes-NaOH, pH 7.4, 150 mM NaCl, 5 mM MgCl2, 1.8 mM CaCl2), placed into 5-10 mL collagenase D, cut into 5-6 pieces and incubated at 37° C. for 45-60 min. Collagenase-digested spleens were then processed with glass slides and passed through a 70 μm nylon mesh cell strainer. After the strainer was flushed with 40 mL culture media, cells were centrifuged (8 min @ 200×G), suspended in 1 mL PBS and subjected to red blood cell lysis by incubating the cell suspension for 5 min at room temperature in 10 mL lysis buffer (155 mM NH4Cl, 10 mM KHCO3, 0.1 mM EDTA), followed by dilution in PBS to 50 mL and centrifugation (8 min @ 200×g). The splenocytes were then suspended in 10 mL MACS buffer (PBS pH 7.2, supplemented with 2 mM EDTA and 0.5% BSA), passed through a 40 μm nylon mesh cell strainer which was flushed with 40 mL MACS buffer. A preliminary cell count was taken at this time, prior to centrifugation (8 min @ 200×G). The splenocytes were suspended at a density of 10^8 cells per 400 μL MACS buffer. Paramagnetic MicroBeads coated with anti-CD11c^+ antibody were mixed with the splenocyte suspension (100 μL per 10^8 cells), incubated at +4° C. for 15 min, washed, suspended in 1.0 mL MACS buffer and passed through a MS+ separation column placed within a strong magnetic field. CD11c^+ cells were retained in the column whereas CD11c^− cells were washed off the column as the flow-through cell fraction. CD11c^+ cells were then collected by removing the column out of the magnetic field and flushing the column twice with 1 mL of MACS buffer. CD11c^+ cells were washed once with culture media and suspended at a density of 0.5×10^6 cells per mL in cytokine supplemented culture media {DMEM/F12 supplemented with 10% FCS and gentamicin containing mouse GM-CSF (1 ng/mL), mouse IL-4 (1 ng/mL), mouse IFNγ (3 ng/mL) and anti mouse CD40 (0.5 mg/mL)}.
Mouse IL12 release from CD11c^+ splenocytes was measured using ELISA. Briefly, CD11c+ cell culture supernatants were sampled following an overnight incubation (usually 15-18 hrs). Media samples ([…]) were added to ELISA plates coated with anti mouse IL12 (p70) capture antibody (R&D #MAB419; 250 ng in 100 μL per well) and incubated either at 37° C. or room temperature for 2 hrs. The ELISA plates were washed extensively with wash buffer after which 100 μL per well of detection antibody/detection reagent (biotinylated anti-mouse IL12; R&D #BAF419 at 50 ng/mL and streptavidin-HRP) was added. […]

Mouse sarcoma 180 cells = test: NK cell-mediated cytotoxicity (NK-CMC) assay, LGL/S180 co-culture; format: cell-based; settings: for NK-CMC Activity: wide range of concentrations, presence and absence of IL-2 (125 U/ml)
Procedure: In one embodiment, a NK cell assay is used to assess ARP-induced cytotoxic activity of NK-like cells (see section 12.2). Briefly, by way of example but not limitation, a NK cell assay can be carried out as follows: large granular lymphocytes (LGLs) are co-cultured with tumor cells at various ratios (effector to target ratio) for four days at 37° C., 5% CO2. […] The culture is terminated at the end of day 4 and vitally stained using a MTT cell viability quantification assay (see Mossman, T. J. Immunol. Methods 65: 55 (1983); and Sigma Chemical MTT (M5655) product application note). Culture media is aspirated and the remaining cells are washed and replaced with DMEM/F12 plus FCS, containing MTT. The cells are further incubated for 4-5 hours at 37° C. Absorbance is measured with the aid of a plate reader. Decreased absorbance indicated a decrease in the number of viable cells per well (i.e., cytotoxicity). Absorbance is measured again after the MTT is solubilized by replacement of the medium with 2-propanol containing HCl, which gives a uniform color throughout the well. NK-inducing activity is calculated relative to negative (PBS/BSA) and positive (internal standard) controls.
Spleens (10-15 per experiment) were aseptically removed from male Balb/C mice 6-10 weeks of age. Splenocytes were “squeezed” out of spleens using 2 sterile glass microscope slides. Cells were collected in approximately 10 ml of DMEM/F 12 containing 10% fetal calf serum (FCS) and gentamicin (50 μg/ml). Single cell suspensions were generated by passing collected cells through a 70 μm nylon mesh screen. After washing the cell pellet once with PBS (centrifuged at 675×g for 5 min), red blood cells were lysed by brief hypotonic shock (i.e. exposure to sterile distilled, deionized water, followed immediately with appropriate volumes of 10×PBS to return to isotonicity). Remaining cells were centrifuged and resuspended in DMEM/F12+10% FCS and transferred to 75 cm^2 flasks each containing 25 mls DMEM/F12+10% FCS (cells from 5 spleens per flask). The cells were incubated for 60 min. at 37° C. to selectively remove readily adherent cells (mainly fibroblasts and macrophages). After the incubation, the flasks were gently shaken and the non-adherent cells were removed, pelleted by centrifugation, and resuspended in DMEM/F12 (no supplements) (1.0 mL/10^8 cells). A 1.0 mL volume of these cell suspensions were carefully layered onto a 70%/60%/40% (2 mL/4 mL/4 mL) Percoll™ gradients in 15 ml centrifuge tubes and centrifuged for 30 min at 675×G. The cells which sediment at the 40/60 interface represent primarily large granular lymphocytes (LGLs), enriched with NK cells. These cells were carefully removed with a pasteur pipet, centrifuged, washed once with PBS and resuspended in approximately 5 mL DMEM/F12 supplemented with gentamicin (50 μg/mL) and 10% fetal calf serum. Cell counts and appropriate dilutions of LGL cells were made with these cells, as described below. For convenience this LGL cell preparation is interchangeably referred to as NK cells.
Mouse sarcoma 180 cells were seeded into 96 well plates at a density of 5×10^3 cells per well in 100 μl DMEM/F12, supplemented with 10% FCS and gentamicin (50 μg/mL). […] NK cells were added in 100 μL of supplemented DMEM/F12 at designated densities: 0 NK cells/well; 5×10^4 NK cells/well (1:10 target/effector ratio); 1.25×10^5 NK cells/well (1:25 target/effector ratio); 2.5×10^5 NK cells/well (1:50 target/effector ratio); and, 5×10^5 NK cells/well (1:100 target/effector ratio). (Note: routinely, only the 1:50 and 1:100 ratios were used for screening purposes. IL2 was added as a media supplement with final concentration of 125 U/mL.). Co-cultures were incubated for 4 days at 37° C., 5% CO2, and terminated and vitally stained using a MTT cell viability quantification assay (see Mossman, T. J. Immunol. Methods 65:55 (1983); and Sigma Chemical MTT (M5655) product application note). […]

Plasmodium yoelii = test: Malaria in mice; format: in vivo, C57BL/6 mice; settings: 40 mg/kg i.p. Days 1-5
Procedure: Groups of male C57BL/6 mice were inoculated i.v. on Day 0 with an infectious dose of Plasmodium yoelii. Groups of mice were administered, by i.p. injection, one of three concentrations of the test material (0.1, 1.0 or 10.0 ng/mouse/day) or vehicle on Day 1 and again on Days 2 through 5, for a total of five doses. An additional assay control group of mice was administered approximately 40 mg of Chloroquine per kg of body weight by i.p. injection on Days 1 through 5 as well.

| Molecule | DC mIL12 Release [2] | NK-CMC Activity (Mouse sarcoma 180 cells) | further results |
| --- | --- | --- | --- |
| [Cl-].[Cl-].[Zn+2] [ZnCl2] |  |  | inhibition of DC-activity of crude ARP preparations [1]: showed inhibition of activity |
| OC(Cn1cncn1)(Cn1cncn1)c1ccc(F)cc1F [Fluconazole, fluconazole] |  |  | Percent Mortality (Candida albicans; ~80 mg/kg oral gavage): 0%; Mean Survival Time (Candida albicans; ~80 mg/kg oral gavage 1, 24, 48 and 72 hours after challenge, all animals): 14.0 days |
| truncated molecule lacking GEADTQAWDTSVREWLVDT: E. tenella ARP with start codon moved to the 21th position (listed as Eimeria tenella) |  |  | DC-activity compared to full-length ARP ([2]; recombinant E. tenella ARP variants): activity was lost |
| IL-5: interleukin | − | − |  |
| [Cl-].[Cl-].[Mg+2] [MgCl2] |  |  | inhibition of DC-activity of crude ARP preparations [1]: did not |
| [Cl][Cu][Cl] [CuCl2] |  |  | inhibition of DC-activity of crude ARP preparations [1]: showed inhibition of activity |
| CCN(CC)CCCC(C)Nc1ccnc2cc(Cl)ccc12 (stereo not shown) [Chloroquine] |  |  | Parasitized Erytthrocytes % (Plasmodium yoelii): 12%; Survival (Days) ± SD (Plasmodium yoelii): 37.0 ± 0.7 days |
| IL-6: interleukin | − | − |  |
| TNF α | − |  |  |
| FGFbasic: growth factor | − | − |  |
| [Ca+2].[Cl-].[Cl-] [CaCl2] |  |  | inhibition of DC-activity of crude ARP preparations [1]: did not |
| N[C@@H](CCC(=O)N[C@@H](CS)C(=O)NCC(=O)O)C(=O)O [reduced glutathione] |  |  | effect on responses in the DC assay ([2]; excess added to the assay system): lowered the responses |
| IL-1 β: interleukin | − | −^3 |  |
| TGF β | − | − |  |
| B1 | − |  | NK-CMC on direct addition (Mouse sarcoma 180 cells; added directly to NK/S180 co-cultures): slight increase; maximal response in the presence of IL-2 (Mouse sarcoma 180 cells; table footnote): ^6Weakly activates NK cells in the presence of IL-2 (maximal response <50% cytotoxicity). |
| B2 | − |  |  |
| B3 | − |  |  |
| B4 | inhibitory | − |  |
